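Values below derive from 48-hour exposures of cells grown in 96-well plates, with endpoints linearly interpolated between the two concentrations bracketing the appropriate inhibition level. GI50: concentration for 50% inhibition of growth.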 Activity calls are given as the source filed them. Cut-off read from the data, not from the text of the source: active = GI50 up to about 1.1 µM and inactive = higher.
Assays:
Experiment in all cases: NCI anticancer screen, dose series, 48 h
HT-29 = test system: HT-29
HL-60 = test system: HL-60
UO-31 = test system: UO-31
HOP-92 = test system: HOP-92
MOLT-4 = test system: MOLT-4
SNB-75 = test system: SNB-75
RXF 631 = test system: RXF 631
786-0 = test system: 786-0
RPMI-8226 = test system: RPMI-8226
SK-MEL-2 = test system: SK-MEL-2
CCRF-CEM = test system: CCRF-CEM
IGROV-1 = test system: IGROV-1
SF-268 = test system: SF-268
K562 = test system: K562
SK-OV-3 = test system: SK-OV-3
SK-MEL-28 = test system: SK-MEL-28
DLD-1 = test system: DLD-1
DMS-273 = test system: DMS-273
OVCAR-5 = test system: OVCAR-5
M19-MEL = test system: M19-MEL
Malme-3M = test system: Malme-3M
HOP-18 = test system: HOP-18
NCI-H522 = test system: NCI-H522
NCI-H23 = test system: NCI-H23
RXF 393 = test system: RXF 393
ACHN = test system: ACHN
NCI-H460 = test system: NCI-H460
CAKI-1 = test system: CAKI-1
SN12C = test system: SN12C
UACC-257 = test system: UACC-257
M14 = test system: M14
A498 = test system: A498
UACC-62 = test system: UACC-62
COLO 205 = test system: COLO 205
SNB-19 = test system: SNB-19
KM-20L2 = test system: KM-20L2
OVCAR-4 = test system: OVCAR-4
XF498 = test system: XF498
LOX IMVI = test system: LOX IMVI
HCT-15 = test system: HCT-15
HCC 2998 = test system: HCC 2998
SF-539 = test system: SF-539
LXFL 529 = test system: LXFL 529
U-251 = test system: U-251
OVCAR-8 = test system: OVCAR-8
A549 = test system: A549
EKVX = test system: EKVX
SNB-78 = test system: SNB-78
SR = test system: SR
KM12 = test system: KM12
HOP-62 = test system: HOP-62
SF-295 = test system: SF-295
HCT-116 = test system: HCT-116
OVCAR-3 = test system: OVCAR-3
SK-MEL-5 = test system: SK-MEL-5
TK-10 = test system: TK-10
NCI-H226 = test system: NCI-H226
SW-620 = test system: SW-620
DMS-114 = test system: DMS-114

For O=C(O)[C@H](NS(=O)(=O)c1ccc2ccccc2c1)c1ccccc1, the GI50 (HT-29) was > 100 µM (inactive), the GI50 (HL-60) was > 100 µM (inactive) and the GI50 (UO-31) was > 100 µM (inactive). For the same compound, the GI50 (HOP-92) was 45.3 µM (inactive), the GI50 (MOLT-4) was > 100 µM (inactive) and the GI50 (SNB-75) was > 100 µM (inactive). The GI50 (RXF 631) was > 100 µM (inactive), the GI50 (786-0) was > 100 µM (inactive) and the GI50 (RPMI-8226) was > 100 µM (inactive). The GI50 (SK-MEL-2) was > 100 µM (inactive), the GI50 (CCRF-CEM) was > 100 µM (inactive) and the GI50 (IGROV-1) was > 100 µM (inactive). For the same compound, the GI50 (SF-268) was > 100 µM (inactive), the GI50 (K562) was > 100 µM (inactive) and the GI50 (SK-OV-3) was > 100 µM (inactive). For the same compound, the GI50 (SK-MEL-28) was > 100 µM (inactive), the GI50 (DLD-1) was > 100 µM (inactive) and the GI50 (DMS-273) was > 100 µM (inactive). For the same compound, the GI50 (OVCAR-5) was > 100 µM (inactive), the GI50 (M19-MEL) was > 100 µM (inactive) and the GI50 (Malme-3M) was > 100 µM (inactive). The GI50 (HOP-18) was > 100 µM (inactive), the GI50 (NCI-H522) was > 100 µM (inactive) and the GI50 (NCI-H23) was > 100 µM (inactive). The GI50 (RXF 393) was 20.6 µM (inactive), the GI50 (ACHN) was > 100 µM (inactive) and the GI50 (NCI-H460) was > 100 µM (inactive). The GI50 (CAKI-1) was > 100 µM (inactive), the GI50 (SN12C) was > 100 µM (inactive) and the GI50 (UACC-257) was > 100 µM (inactive). For the same compound, the GI50 (M14) was > 100 µM (inactive), the GI50 (A498) was > 100 µM (inactive) and the GI50 (UACC-62) was > 100 µM (inactive). For the same compound, the GI50 (COLO 205) was > 100 µM (inactive), the GI50 (SNB-19) was > 100 µM (inactive) and the GI50 (KM-20L2) was > 100 µM (inactive). The GI50 (OVCAR-4) was > 100 µM (inactive), the GI50 (XF498) was 99.3 µM (inactive) and the GI50 (LOX IMVI) was > 100 µM (inactive). The GI50 (HCT-15) was over 100 µM, the GI50 (HCC 2998) was > 100 µM (inactive) and the GI50 (SF-539) was > 100 µM (inactive). For the same compound, the GI50 (LXFL 529) was > 100 µM (inactive) and the GI50 (U-251) was > 100 µM (inactive).

NNC(=S)N/N=C(\c1nc2ccc(Cl)cc2nc1O)C(O)c1cccc([N+](=O)[O-])c1 (stereo not drawn) was tested, and the GI50 (HT-29) was > 36.1 µM (inactive), the GI50 (OVCAR-8) was > 100 µM (inactive) and the GI50 (A549) was > 100 µM (inactive). The GI50 (HL-60) was > 52.2 µM (inactive), the GI50 (UO-31) was > 100 µM (inactive) and the GI50 (HOP-92) was > 86.3 µM (inactive). The GI50 (MOLT-4) was > 100 µM (inactive), the GI50 (SNB-75) was > 100 µM (inactive) and the GI50 (RXF 631) was 32.3 µM (inactive). For the same compound, the GI50 (786-0) was > 43 µM (inactive), the GI50 (EKVX) was > 100 µM (inactive) and the GI50 (RPMI-8226) was > 43.3 µM (inactive). For the same compound, the GI50 (SK-MEL-2) was > 100 µM (inactive), the GI50 (SNB-78) was > 100 µM (inactive) and the GI50 (CCRF-CEM) was > 52.5 µM (inactive). For the same compound, the GI50 (IGROV-1) was > 100 µM (inactive), the GI50 (SF-268) was > 52.1 µM (inactive) and the GI50 (K562) was > 45.3 µM (inactive). The GI50 (SK-OV-3) was > 100 µM (inactive), the GI50 (SK-MEL-28) was > 49 µM (inactive) and the GI50 (DMS-273) was > 41.1 µM (inactive). The GI50 (OVCAR-5) was > 100 µM (inactive), the GI50 (M19-MEL) was > 100 µM (inactive) and the GI50 (SR) was 15.9 µM (inactive). For the same compound, the GI50 (KM12) was > 100 µM (inactive), the GI50 (Malme-3M) was > 100 µM (inactive) and the GI50 (HOP-18) was > 100 µM (inactive). The GI50 (NCI-H522) was > 100 µM (inactive), the GI50 (HOP-62) was > 38.9 µM (inactive) and the GI50 (NCI-H23) was > 42.8 µM (inactive). For the same compound, the GI50 (RXF 393) was > 94.4 µM (inactive), the GI50 (ACHN) was > 100 µM (inactive) and the GI50 (NCI-H460) was > 75 µM (inactive). The GI50 (CAKI-1) was > 74.1 µM (inactive), the GI50 (SN12C) was 72.3 µM (inactive) and the GI50 (SF-295) was > 63.7 µM (inactive). For the same compound, the GI50 (UACC-257) was > 100 µM (inactive), the GI50 (M14) was > 53.5 µM (inactive) and the GI50 (A498) was > 100 µM (inactive). For the same compound, the GI50 (HCT-116) was > 31.6 µM (inactive), the GI50 (UACC-62) was > 100 µM (inactive) and the GI50 (COLO 205) was > 42.7 µM (inactive). The GI50 (OVCAR-3) was > 100 µM (inactive), the GI50 (SK-MEL-5) was > 100 µM (inactive) and the GI50 (SNB-19) was > 100 µM (inactive). The GI50 (KM-20L2) was > 100 µM (inactive), the GI50 (OVCAR-4) was > 72.1 µM (inactive) and the GI50 (XF498) was > 100 µM (inactive). The GI50 (TK-10) was > 100 µM (inactive), the GI50 (LOX IMVI) was > 40.5 µM (inactive) and the GI50 (NCI-H226) was > 100 µM (inactive). The GI50 (HCT-15) was over 42.1 µM, the GI50 (HCC 2998) was > 100 µM (inactive) and the GI50 (SW-620) was 20.9 µM (inactive). The GI50 (SF-539) was > 31.8 µM (inactive), the GI50 (LXFL 529) was > 74.6 µM (inactive) and the GI50 (U-251) was > 100 µM (inactive).

For CC(C)(C)/N=C/N1C=Cc2nc3ccccc3cc2C1, the GI50 (HT-29) was > 100 µM (inactive), the GI50 (OVCAR-8) was > 100 µM (inactive) and the GI50 (A549) was > 100 µM (inactive). The GI50 (HL-60) was 75.7 µM (inactive), the GI50 (UO-31) was > 100 µM (inactive) and the GI50 (HOP-92) was > 100 µM (inactive). The GI50 (MOLT-4) was > 100 µM (inactive), the GI50 (SNB-75) was > 100 µM (inactive) and the GI50 (RXF 631) was > 100 µM (inactive). The GI50 (786-0) was > 100 µM (inactive), the GI50 (EKVX) was > 100 µM (inactive) and the GI50 (SK-MEL-2) was > 100 µM (inactive). For the same compound, the GI50 (SNB-78) was > 100 µM (inactive), the GI50 (CCRF-CEM) was > 100 µM (inactive) and the GI50 (IGROV-1) was > 100 µM (inactive). For the same compound, the GI50 (SF-268) was > 100 µM (inactive), the GI50 (K562) was > 100 µM (inactive) and the GI50 (SK-OV-3) was > 100 µM (inactive). The GI50 (SK-MEL-28) was > 100 µM (inactive), the GI50 (DLD-1) was 34.1 µM (inactive) and the GI50 (DMS-273) was > 100 µM (inactive). For the same compound, the GI50 (OVCAR-5) was > 100 µM (inactive), the GI50 (M19-MEL) was > 100 µM (inactive) and the GI50 (SR) was > 100 µM (inactive). For the same compound, the GI50 (KM12) was > 100 µM (inactive), the GI50 (Malme-3M) was > 100 µM (inactive) and the GI50 (HOP-18) was > 100 µM (inactive). For the same compound, the GI50 (NCI-H522) was > 100 µM (inactive), the GI50 (HOP-62) was > 100 µM (inactive) and the GI50 (NCI-H23) was > 100 µM (inactive). The GI50 (RXF 393) was > 100 µM (inactive), the GI50 (ACHN) was > 100 µM (inactive) and the GI50 (NCI-H460) was 32.6 µM (inactive). For the same compound, the GI50 (CAKI-1) was > 100 µM (inactive), the GI50 (SN12C) was > 100 µM (inactive) and the GI50 (SF-295) was > 100 µM (inactive). The GI50 (UACC-257) was > 100 µM (inactive), the GI50 (M14) was > 100 µM (inactive) and the GI50 (A498) was > 100 µM (inactive). The GI50 (DMS-114) was > 100 µM (inactive), the GI50 (HCT-116) was > 100 µM (inactive) and the GI50 (UACC-62) was > 100 µM (inactive). The GI50 (COLO 205) was 36.9 µM (inactive), the GI50 (OVCAR-3) was > 100 µM (inactive) and the GI50 (SK-MEL-5) was > 100 µM (inactive). The GI50 (SNB-19) was > 100 µM (inactive), the GI50 (KM-20L2) was > 100 µM (inactive) and the GI50 (OVCAR-4) was > 100 µM (inactive). For the same compound, the GI50 (XF498) was > 100 µM (inactive), the GI50 (TK-10) was > 100 µM (inactive) and the GI50 (LOX IMVI) was 26.7 µM (inactive). For the same compound, the GI50 (HCT-15) was 57.1 µM, the GI50 (HCC 2998) was > 100 µM (inactive) and the GI50 (SW-620) was 19.5 µM (inactive). The GI50 (SF-539) was > 100 µM (inactive), the GI50 (LXFL 529) was > 100 µM (inactive) and the GI50 (U-251) was > 100 µM (inactive).
